Measured values as given in PMC6934184, “Selective DNA-PKcs inhibition extends the therapeutic index of localized radiotherapy and chemotherapy” (The Journal of Clinical Investigation, 2019).

Target: T1, PDK1 (Homo sapiens, UniProt O15530)
T1 construct: purchased Thermo Fisher Scientific (Life Technologies) SelectScreen
Experiment: SelectScreen Z'LYTE
Type: biochemical
In short: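 Percent values come from Thermo SelectScreen profiling of NU5455, combining activity and binding assays. CSF1R was run in Z'LYTE format at Km app ATP, and CAMK1 in Adapta format with ATP listed at 10.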

T1 sequence (O15530 whole entry): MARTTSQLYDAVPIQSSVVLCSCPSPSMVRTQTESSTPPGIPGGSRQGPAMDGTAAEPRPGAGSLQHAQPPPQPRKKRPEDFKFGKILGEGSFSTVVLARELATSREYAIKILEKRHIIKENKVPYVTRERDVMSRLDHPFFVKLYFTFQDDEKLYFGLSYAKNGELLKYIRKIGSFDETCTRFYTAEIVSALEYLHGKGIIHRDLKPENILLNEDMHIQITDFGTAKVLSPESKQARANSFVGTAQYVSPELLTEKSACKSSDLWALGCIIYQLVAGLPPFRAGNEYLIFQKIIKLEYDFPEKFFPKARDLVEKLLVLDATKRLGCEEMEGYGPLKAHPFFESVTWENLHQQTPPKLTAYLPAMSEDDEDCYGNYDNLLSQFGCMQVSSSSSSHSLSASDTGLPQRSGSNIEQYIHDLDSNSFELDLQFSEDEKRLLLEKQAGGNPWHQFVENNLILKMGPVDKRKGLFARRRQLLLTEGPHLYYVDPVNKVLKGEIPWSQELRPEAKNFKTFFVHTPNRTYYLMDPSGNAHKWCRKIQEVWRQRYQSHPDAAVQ

In the case of `CN(C(=O)CN1CCOCC1)c1ccc2sc3c(-c4cccc5c(=O)cc(N6CC7CCC(C6)O7)oc45)cccc3c2c1` [NU5455], the inhibition at 1 µM is reported as -7.3%.
